From patent publication US9340577B2, “HLA binding motifs and peptides and their uses” (priority 1992, dated 2016) come the findings set out here.

Some targets named below: A*6801 (Homo sapiens, UniProt P04439, A269V/D185E/E176V/E277Q/E87N/F33Y/G231S/I121M/I166T/I218V/L180W/L300P/L318F/N151K/P208A/P217A/Q86R/R169H/T345S); HLA-A11 (A*1101) (Homo sapiens, UniProt P04439, A114D/D185E/E176A/F33Y/L180Q/S129P/T187R); A*3301 (Homo sapiens, UniProt P04439, A270S/D185E/E176V/E277Q/E87N/F33T/G231S/H175R/I121M/I218V/I322F/K168Q/K210R/L300P/L318F/M331R/P217A/Q86R/Q94H/R138Q/T323A/T345S/T97I/V358M/Y195H); A*2902 (Homo sapiens, UniProt P04439, A270S/D101N/D185E/E176V/E277Q/E87Q/F33T/G231S/H175R/I121M/I218V/I322F/K168Q/L300P/L318F/M331R/P208A/P217A/Q86L/T323A/T345S/V100A/V358M); HLA-A1 (A*0101) (Homo sapiens, UniProt P04439, A114D/A174V/A182V/D101N/D185E/E176A/E190D/L180R/Q94H/R68K/S129P/T187R/V100A/V91M/W191G); A*3002 (Homo sapiens, UniProt P04439, D101N/D140H/D185E/E176R/F33S/G80R/H175R/K168Q/Q94H/R138E/R41S/V100E); A31 (A*3101) (Homo sapiens, UniProt P04439, A270S/D185E/E176V/E277Q/F33T/G231S/G80R/H175R/I121M/I218V/I322F/K168Q/L300P/L318F/M331R/P217A/Q94H/R138Q/T323A/T345S/T97I/V358M); A*2601 (Homo sapiens, UniProt P04439, A114D/A173T/A270S/D101N/D185E/E277Q/E87N/F33Y/G231S/I121R/I218V/K168Q/L180W/L300P/L318F/P208A/P217A/Q86R/Q94H/R138Q/S129P/T187R/T323A/T345S/V100A/V358M).

Holding throughout (assay): biochemical
Common to all, as to format: binding

pIC50: −log10 of the molar value. No end group written: not given here.

A*3002, sequence (P04439 whole entry, looked up, the tested form may be a part, stated change not applied): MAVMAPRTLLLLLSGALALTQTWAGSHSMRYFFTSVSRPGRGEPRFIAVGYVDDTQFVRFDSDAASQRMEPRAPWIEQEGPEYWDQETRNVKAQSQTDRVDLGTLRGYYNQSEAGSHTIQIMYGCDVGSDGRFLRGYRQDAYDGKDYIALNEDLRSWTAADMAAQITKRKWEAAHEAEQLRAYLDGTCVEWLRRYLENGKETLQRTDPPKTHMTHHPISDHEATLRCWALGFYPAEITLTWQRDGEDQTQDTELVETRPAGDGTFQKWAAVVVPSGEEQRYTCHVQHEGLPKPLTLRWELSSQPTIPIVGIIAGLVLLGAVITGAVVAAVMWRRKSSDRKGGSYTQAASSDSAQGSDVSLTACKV

What is called pIC50 is the IC50 on a negative log10 scale, so that one unit is a factor of ten. Consider `CC(C)C[C@H](NC(=O)[C@H](CO)NC(=O)[C@@H](N)CCCNC(=N)N)C(=O)N[C@@H](Cc1ccc(O)cc1)C(=O)N[C@@H](CC(N)=O)C(=O)N[C@H](C(=O)N[C@H](C(=O)N[C@@H](C)C(=O)N[C@H](C(=O)N[C@@H](CC(C)C)C(=O)N[C@@H](Cc1ccc(O)cc1)C(=O)O)[C@@H](C)O)C(C)C)[C@@H](C)O` [Peptide 1595.06], for which the negative logarithm of the IC50 (pIC50) is below 4.70 at A*6801; 6.83 at HLA-A11 (A*1101); below 4.70 at A*3301; 6.12 against A*2902; 6.66 at HLA-A1 (A*0101); 8.92 against A*3002. This molecule had a pIC50 at A31 (A*3101) of 5.03.
Consider `CC[C@H](C)[C@H](NC(=O)[C@H](CO)NC(=O)[C@@H](NC(=O)[C@@H]1CCCN1C(=O)[C@H](CO)NC(=O)[C@H](Cc1ccc(O)cc1)NC(=O)[C@H](CCSC)NC(=O)[C@@H](N)CCCNC(=N)N)C(C)C)C(=O)N[C@@H](CC(C)C)C(=O)O` [Peptide 1605.07], for which the pIC50 at A*2902 was below 4.70; at A*2601 it was below 4.70; on HLA-A1 (A*0101), below 4.70; on A*3002, 7.36.
In the case of CQDKILEHY [Peptide 1580.23], the negative-log IC50 (pIC50) is below 4.70 against A*2902, below 4.70 against A*2601, 7.26 at HLA-A1 (A*0101) and 5.58 against A*3002.
With DLADQLIHLY [Peptide 9015.0184], the pIC50 was 5.01 against A*2902, 8.21 at A*2601 and 6.02 against HLA-A1 (A*0101).
DLDDQLIHLY [Peptide 9018.0022]: the pIC50 against A*2902 is 8.43; against A*2601 it was 7.42; at HLA-A1 (A*0101) it was 8.31; against A*3002, 8.57.
As for DTADQLIHLY [Peptide 9018.0021], the pIC50 on A*2902 was 7.52; at A*2601, 8.49; at HLA-A1 (A*0101), 8.44; at A*3002 it was 7.89.
On the same counts, the results for EISNYTDIIY [Peptide 9015.0158] are below 4.70, 7.23, 5.22 and 5.54.
For EISNYTDTIY [Peptide 9015.0157], in that order: below 4.70, 7.49, 5.63 and 5.15.
For ETKKGKAGY [Peptide 9015.0024], in that order: below 4.70, 7.82, below 4.70 and 5.68.
Consider ETKLGKAGY [Peptide 9015.0023], for which the negative-log IC50 (pIC50) against A*2902 was below 4.70; on A*2601, 7.68; on HLA-A1 (A*0101), below 4.70; against A*3002 it was 5.41.
In the case of ETPGIRYQY [Peptide 9015.0017], the negative-log IC50 (pIC50) against A*2902 is below 4.70; against A*2601, 7.60; at HLA-A1 (A*0101), 5.04; against A*3002, 5.64.
On the same counts, the results for ETWETWWMDY [Peptide 9015.0168] are 5.29, 8.54, 7.04 and 6.22.
With ETWETWWTDY [Peptide 9015.0169], the pIC50 against A*2902 is 4.93; against A*2601 it was 8.64; at HLA-A1 (A*0101) it was 6.02; against A*3002, 5.06.
On the same counts, the results for FGEMVQWAY [Peptide 1580.13] are 7.09, below 4.70, 6.50 and 6.60.
Turning to GLADQLIHLY [Peptide 9015.0185], the values for the negative-log IC50 (pIC50) against A*2601, against HLA-A1 (A*0101) and on A*3002 were 6.37, 5.26 and 8.04, respectively.
Consider GLDDQLIHLY [Peptide 9018.0024], for which the negative-log IC50 (pIC50) was 6.36 against A*2902, 5.85 at A*2601, 7.96 against HLA-A1 (A*0101) and 7.25 against A*3002.
Turning to GTADQLIHLY [Peptide 9018.0023], the pIC50 on A*2601 was 7.17; on HLA-A1 (A*0101), 7.59; against A*3002, 8.70.
For GTDCNGWFY [Peptide 1593.01], the pIC50 is 7.14 at A*2902, 6.50 at A*2601, 7.40 at HLA-A1 (A*0101) and 6.48 against A*3002.
In the case of GTEELRSLY [Peptide 9015.0010], the pIC50 at A*2902 is 5.32; on A*2601, 6.18; against A*3002 it was 7.29.
With HMARELHPEY [Peptide 9015.0176], the pIC50 is 5.80 against A*2601, 6.21 against HLA-A1 (A*0101) and 7.48 on A*3002.
As for HTAREKHPEY [Peptide 9018.0006], the pIC50 on A*2902 is 5.35; against A*2601, 7.82.
As for HTARELHPEY [Peptide 9018.0004], the pIC50 against A*2601 was 7.92; at HLA-A1 (A*0101) it was 8.10; against A*3002, 8.04.
As to ISERILSTY [Peptide 1522.03], the pIC50 is below 4.70 on A*2902, 5.39 on A*2601 and 7.51 on HLA-A1 (A*0101).
Consider ISWTYIDDY [Peptide 86.0135], for which the pIC50 against A*2902 was 5.60; on A*2601, below 4.70; at A*3002, 8.03.
For the molecule ITKIGPENPY [Peptide 9015.0162], the results for the pIC50 on A*2902 and at A*2601 were below 4.70 and 6.01, respectively.
As to IVDDSEIAY [Peptide 1580.04], the values for the negative logarithm of the IC50 (pIC50) on A*2601 and at A*3002 were below 4.70 and 5.69, respectively.
In the case of KSDIVTLTY [Peptide 1593.07], the negative logarithm of the IC50 (pIC50) against A*2902 is 5.50; on A*2601, below 4.70; on HLA-A1 (A*0101), 7.21.
Take LADQLIHMYY [Peptide 9015.0187]: the pIC50 on A*2601 is 5.75; on HLA-A1 (A*0101) it was 8.60; on A*3002 it was 6.11.
Consider LFDQLIHMYY [Peptide 9018.0030], for which the figures for the pIC50 at A*2902, against A*2601 and against A*3002 were 7.92, 5.62 and 7.19, respectively.
In the case of LSEMVQWAY [Peptide 1580.10], the values for the pIC50 against A*2902, against A*2601 and against HLA-A1 (A*0101) were 6.20, below 4.70 and 8.16, respectively.
Consider LTDDSDIAY [Peptide 1580.11], for which the results for the negative-log IC50 (pIC50) at A*2902, at A*2601 and against A*3002 were 5.32, 5.41 and 5.26, respectively.
For the molecule LTDQLIHMYY [Peptide 9018.0029], the negative-log IC50 (pIC50) is 5.49 at A*2601, 8.20 against HLA-A1 (A*0101) and 6.71 at A*3002.
As for MWKFDSRLAL [Peptide 1605.17], the pIC50 against A*2902, on A*2601 and at HLA-A1 (A*0101) was below 4.70 in each case.
Consider RQEILDLWVY [Peptide 9015.0174], for which the negative-log IC50 (pIC50) is 5.06 at A*2601, 5.14 against HLA-A1 (A*0101) and 7.12 against A*3002.
Take SFDPIPIHY [Peptide 9015.0002]: the negative-log IC50 (pIC50) against A*2902 is 7.57; against A*2601, 5.58; against HLA-A1 (A*0101), 6.50.
Take SSNTKANILY [Peptide 1580.08]: the pIC50 is 6.24 on A*2601, 6.54 on HLA-A1 (A*0101) and 7.48 against A*3002.
On the same counts, the results for STEWRQRRY [Peptide 9018.0017] are 6.43, 8.15 and 7.72.
On the same counts, the results for SYEWRLRRY [Peptide 9018.0036] are 5.49, 5.43 and 7.24.
Regarding VMDDSEIAY [Peptide 1580.07], the values for the negative logarithm of the IC50 (pIC50) against A*2902, against A*2601 and against A*3002 were 7.02, below 4.70 and 5.59, respectively.
For VSRRANGWFY [Peptide 9015.0179], in that order: 5.25, below 4.70 and 8.28.
VTDDSEIAY [Peptide 1593.13]: the pIC50 on A*2601 is below 4.70; on HLA-A1 (A*0101), 7.66; against A*3002, 5.00.
For VTTIVYIEY [Peptide 9018.0041], in that order: 6.35, 8.44 and 7.04.
VWTIVYIEY [Peptide 9015.0089]: the pIC50 against A*2601 is below 4.70; against HLA-A1 (A*0101), 5.16.
For YTPGPGTRY [Peptide 9015.0027], the pIC50 was 5.89 against A*2902, 7.96 on A*2601 and 5.04 against A*3002.
Consider YTPGPGVRY [Peptide 9015.0026], for which the results for the pIC50 against A*2902, on A*2601 and against A*3002 were 5.87, 7.57 and 5.12, respectively.
